Test results as given in patent EP4467141A1, “PYRAZOLO-QUINOLINES AS SELECTIVE INHIBITORS OF GENOTOXIC STRESS-INDUCED IKK/NF- KB PATHWAYS FOR CANCER THERAPY” (Max-Delbrück-Centrum für Molekulare Medizin in der …, priority 2023, dated 2024).

Tests used:
Experiment in all cases: Kinase panel study
Type in all cases: biochemical
Conditions in all cases: read-out: Percentage of inhibition; for inhibition at 1 µM: 1000nM; for inhibition at 10 µM: 10000nM
MST1R (RON) = target: T1, MST1R (RON) (Homo sapiens, UniProt Q04912)
T1 construct: purchased Thermo Fisher Scientific
Procedure, shortened: (§1)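 Compounds were tested in vitro against the kinase panel by a service lab. Assays followed standard ZLyte or Adapta protocols. Activity was recorded as % inhibition at 10 µM or 1 µM, with IC50 values where determined.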

AMPK A1/B1/G1 = target: T2, AMPK A1/B1/G1 (Homo sapiens, UniProt Q13131)
T2 construct: purchased Thermo Fisher Scientific
Procedure, shortened: as §1

CDK7/cyclin H/MNAT1 = target: T3, CDK7/cyclin H/MNAT1 (Homo sapiens, UniProt P50613)
T3 construct: purchased Thermo Fisher Scientific
Procedure, shortened: as §1

TXK = target: T4, TXK (Homo sapiens, UniProt P42681)
T4 construct: purchased Thermo Fisher Scientific
T4 sequence (P42681 1-527): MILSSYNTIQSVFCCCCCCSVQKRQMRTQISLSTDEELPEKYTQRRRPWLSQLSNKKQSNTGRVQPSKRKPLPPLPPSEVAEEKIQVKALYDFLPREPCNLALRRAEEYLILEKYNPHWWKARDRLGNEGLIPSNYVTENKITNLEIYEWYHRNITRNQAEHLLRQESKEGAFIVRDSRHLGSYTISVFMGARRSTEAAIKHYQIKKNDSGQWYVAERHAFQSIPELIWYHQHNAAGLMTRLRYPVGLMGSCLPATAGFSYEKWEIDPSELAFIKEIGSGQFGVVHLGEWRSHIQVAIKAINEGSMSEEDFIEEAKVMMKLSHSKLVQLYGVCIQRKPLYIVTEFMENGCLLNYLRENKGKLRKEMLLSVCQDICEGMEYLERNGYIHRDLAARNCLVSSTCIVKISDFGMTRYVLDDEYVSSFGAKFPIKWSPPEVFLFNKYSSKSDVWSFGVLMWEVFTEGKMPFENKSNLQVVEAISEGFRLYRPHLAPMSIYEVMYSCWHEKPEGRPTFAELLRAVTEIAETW
Procedure, shortened: as §1

EPHB4 = target: T5, EPHB4 (Homo sapiens, UniProt P54760)
T5 construct: purchased Thermo Fisher Scientific
T5 sequence (P54760 16-987): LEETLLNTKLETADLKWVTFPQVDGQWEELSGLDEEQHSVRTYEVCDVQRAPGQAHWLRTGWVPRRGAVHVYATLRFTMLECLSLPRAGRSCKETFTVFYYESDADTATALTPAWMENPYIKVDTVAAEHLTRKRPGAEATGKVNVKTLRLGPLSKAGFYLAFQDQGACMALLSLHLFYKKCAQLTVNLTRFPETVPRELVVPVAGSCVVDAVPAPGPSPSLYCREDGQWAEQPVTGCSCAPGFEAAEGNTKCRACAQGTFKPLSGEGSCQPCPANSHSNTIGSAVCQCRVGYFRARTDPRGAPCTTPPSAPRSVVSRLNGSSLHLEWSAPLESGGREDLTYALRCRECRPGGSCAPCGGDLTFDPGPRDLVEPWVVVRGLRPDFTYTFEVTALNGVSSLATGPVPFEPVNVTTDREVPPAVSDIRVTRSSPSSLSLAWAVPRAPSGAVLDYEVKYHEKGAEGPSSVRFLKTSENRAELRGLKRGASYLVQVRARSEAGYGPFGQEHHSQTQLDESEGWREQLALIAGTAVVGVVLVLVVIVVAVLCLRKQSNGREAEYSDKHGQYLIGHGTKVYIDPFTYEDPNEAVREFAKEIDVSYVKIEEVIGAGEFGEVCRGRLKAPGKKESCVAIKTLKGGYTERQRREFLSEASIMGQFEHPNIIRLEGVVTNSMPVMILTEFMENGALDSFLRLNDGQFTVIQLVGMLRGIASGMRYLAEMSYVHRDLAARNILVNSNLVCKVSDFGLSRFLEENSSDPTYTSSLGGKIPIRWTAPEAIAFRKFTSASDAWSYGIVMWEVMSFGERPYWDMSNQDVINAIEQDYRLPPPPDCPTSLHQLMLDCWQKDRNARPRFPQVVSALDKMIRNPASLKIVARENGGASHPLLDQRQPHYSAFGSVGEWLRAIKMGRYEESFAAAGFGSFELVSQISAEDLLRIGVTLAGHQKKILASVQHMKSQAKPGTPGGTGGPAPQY
Procedure, shortened: as §1

PIM1 = target: T6, PIM1 (Homo sapiens, UniProt P11309)
T6 construct: purchased Thermo Fisher Scientific
Procedure, shortened: as §1

CDK5/p35 = target: T7, CDK5/p35 (Homo sapiens, UniProt Q00535)
T7 construct: purchased Thermo Fisher Scientific
Procedure, shortened: as §1

T3 sequence (P50613 whole entry): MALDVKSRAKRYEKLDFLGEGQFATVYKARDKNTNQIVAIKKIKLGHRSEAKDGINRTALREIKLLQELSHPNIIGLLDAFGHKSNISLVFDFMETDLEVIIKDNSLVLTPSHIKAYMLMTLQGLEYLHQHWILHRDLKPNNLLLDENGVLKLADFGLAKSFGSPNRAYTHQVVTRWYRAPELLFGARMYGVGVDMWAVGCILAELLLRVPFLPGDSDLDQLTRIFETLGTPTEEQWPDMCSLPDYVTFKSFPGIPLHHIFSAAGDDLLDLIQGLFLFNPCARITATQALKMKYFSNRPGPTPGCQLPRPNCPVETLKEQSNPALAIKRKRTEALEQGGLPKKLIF
T3 sequence (P51946 whole entry partner): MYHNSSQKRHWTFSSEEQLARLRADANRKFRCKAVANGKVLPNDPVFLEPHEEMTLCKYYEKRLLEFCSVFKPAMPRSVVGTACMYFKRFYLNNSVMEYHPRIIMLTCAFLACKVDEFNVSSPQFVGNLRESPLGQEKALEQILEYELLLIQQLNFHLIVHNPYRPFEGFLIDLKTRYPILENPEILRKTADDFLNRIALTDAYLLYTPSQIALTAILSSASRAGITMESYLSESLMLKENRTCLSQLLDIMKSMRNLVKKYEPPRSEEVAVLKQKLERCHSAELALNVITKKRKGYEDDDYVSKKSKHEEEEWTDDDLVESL
T3 sequence (P51948 whole entry partner): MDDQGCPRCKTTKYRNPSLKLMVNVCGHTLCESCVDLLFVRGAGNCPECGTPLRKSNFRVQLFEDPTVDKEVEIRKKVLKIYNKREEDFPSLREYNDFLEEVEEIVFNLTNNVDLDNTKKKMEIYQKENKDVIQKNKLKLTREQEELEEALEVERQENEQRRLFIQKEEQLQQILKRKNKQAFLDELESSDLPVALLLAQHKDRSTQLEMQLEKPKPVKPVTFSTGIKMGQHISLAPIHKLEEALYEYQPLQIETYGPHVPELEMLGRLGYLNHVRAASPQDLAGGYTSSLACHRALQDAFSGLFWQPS
T7 sequence (Q00535 whole entry): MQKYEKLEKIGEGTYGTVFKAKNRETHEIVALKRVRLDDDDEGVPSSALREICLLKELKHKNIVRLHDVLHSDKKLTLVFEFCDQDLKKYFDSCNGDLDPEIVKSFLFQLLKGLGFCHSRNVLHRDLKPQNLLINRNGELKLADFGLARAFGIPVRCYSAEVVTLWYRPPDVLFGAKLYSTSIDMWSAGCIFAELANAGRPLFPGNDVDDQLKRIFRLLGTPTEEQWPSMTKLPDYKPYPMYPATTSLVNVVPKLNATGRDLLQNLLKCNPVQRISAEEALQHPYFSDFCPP
T7 sequence (Q15078 whole entry partner): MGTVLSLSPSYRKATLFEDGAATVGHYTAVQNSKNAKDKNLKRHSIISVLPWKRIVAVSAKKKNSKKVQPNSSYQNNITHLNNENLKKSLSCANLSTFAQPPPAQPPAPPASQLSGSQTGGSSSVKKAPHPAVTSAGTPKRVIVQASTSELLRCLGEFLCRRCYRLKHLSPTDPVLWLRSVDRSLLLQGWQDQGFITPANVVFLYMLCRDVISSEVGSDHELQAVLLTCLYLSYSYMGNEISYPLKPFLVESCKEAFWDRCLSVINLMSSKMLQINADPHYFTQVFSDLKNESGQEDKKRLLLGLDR
T1 sequence (Q04912 25-1400): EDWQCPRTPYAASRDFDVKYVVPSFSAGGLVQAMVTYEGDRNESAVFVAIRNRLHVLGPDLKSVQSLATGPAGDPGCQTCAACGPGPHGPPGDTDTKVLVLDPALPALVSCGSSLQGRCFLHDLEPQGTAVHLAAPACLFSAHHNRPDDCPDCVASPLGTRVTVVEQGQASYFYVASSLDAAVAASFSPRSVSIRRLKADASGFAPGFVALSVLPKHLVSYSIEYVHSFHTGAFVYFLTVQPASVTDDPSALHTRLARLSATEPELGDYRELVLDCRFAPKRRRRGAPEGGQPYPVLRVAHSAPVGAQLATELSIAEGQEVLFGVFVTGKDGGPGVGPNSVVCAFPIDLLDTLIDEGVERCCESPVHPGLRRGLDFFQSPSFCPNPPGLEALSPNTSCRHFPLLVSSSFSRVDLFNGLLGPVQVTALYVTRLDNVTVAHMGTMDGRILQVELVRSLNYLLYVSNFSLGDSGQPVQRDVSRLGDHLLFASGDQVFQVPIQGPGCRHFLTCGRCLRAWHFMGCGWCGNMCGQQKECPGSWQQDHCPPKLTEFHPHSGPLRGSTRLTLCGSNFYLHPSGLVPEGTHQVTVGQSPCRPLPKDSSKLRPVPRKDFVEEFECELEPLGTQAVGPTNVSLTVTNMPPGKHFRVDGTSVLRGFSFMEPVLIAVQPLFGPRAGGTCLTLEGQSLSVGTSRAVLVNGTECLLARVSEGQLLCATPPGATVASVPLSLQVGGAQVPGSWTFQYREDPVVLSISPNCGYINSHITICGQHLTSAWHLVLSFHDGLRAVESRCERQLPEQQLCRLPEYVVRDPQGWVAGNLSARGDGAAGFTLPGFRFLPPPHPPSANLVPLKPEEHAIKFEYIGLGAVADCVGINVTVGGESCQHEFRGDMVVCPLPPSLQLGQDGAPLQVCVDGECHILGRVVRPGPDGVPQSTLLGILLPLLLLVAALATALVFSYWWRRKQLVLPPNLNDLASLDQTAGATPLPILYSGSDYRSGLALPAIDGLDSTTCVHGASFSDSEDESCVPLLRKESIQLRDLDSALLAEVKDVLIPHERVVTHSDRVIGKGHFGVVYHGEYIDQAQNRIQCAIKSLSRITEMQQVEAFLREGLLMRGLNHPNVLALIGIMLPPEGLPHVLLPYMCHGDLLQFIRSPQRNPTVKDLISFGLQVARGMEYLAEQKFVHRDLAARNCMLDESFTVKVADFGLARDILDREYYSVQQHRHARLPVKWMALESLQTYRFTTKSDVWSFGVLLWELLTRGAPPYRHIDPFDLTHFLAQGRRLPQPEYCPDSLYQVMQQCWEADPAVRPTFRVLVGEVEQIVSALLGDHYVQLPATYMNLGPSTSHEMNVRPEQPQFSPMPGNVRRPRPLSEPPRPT
T2 sequence (Q13131 whole entry): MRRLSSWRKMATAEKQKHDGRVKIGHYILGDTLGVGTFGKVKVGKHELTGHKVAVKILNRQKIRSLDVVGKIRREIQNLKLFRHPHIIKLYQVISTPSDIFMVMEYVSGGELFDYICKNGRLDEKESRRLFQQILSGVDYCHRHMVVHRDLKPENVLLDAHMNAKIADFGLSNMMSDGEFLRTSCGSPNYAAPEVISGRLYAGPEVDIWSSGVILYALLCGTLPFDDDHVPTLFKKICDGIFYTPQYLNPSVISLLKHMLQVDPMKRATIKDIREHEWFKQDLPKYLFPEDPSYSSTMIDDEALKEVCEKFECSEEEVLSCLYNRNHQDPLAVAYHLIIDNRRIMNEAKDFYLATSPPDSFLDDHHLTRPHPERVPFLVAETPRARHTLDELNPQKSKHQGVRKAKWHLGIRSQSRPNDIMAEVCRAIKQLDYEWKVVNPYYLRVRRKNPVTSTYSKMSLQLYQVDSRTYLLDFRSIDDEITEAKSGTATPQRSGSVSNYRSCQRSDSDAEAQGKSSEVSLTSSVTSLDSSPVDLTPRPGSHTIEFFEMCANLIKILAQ
T2 sequence (Q9Y478 whole entry partner): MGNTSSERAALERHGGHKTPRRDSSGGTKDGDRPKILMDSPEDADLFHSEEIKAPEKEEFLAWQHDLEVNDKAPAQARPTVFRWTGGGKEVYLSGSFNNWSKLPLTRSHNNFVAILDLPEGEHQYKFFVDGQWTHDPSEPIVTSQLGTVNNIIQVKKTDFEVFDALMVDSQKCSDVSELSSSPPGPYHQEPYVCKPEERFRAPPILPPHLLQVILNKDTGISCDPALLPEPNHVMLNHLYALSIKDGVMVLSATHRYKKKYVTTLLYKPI
T2 sequence (P54619 whole entry partner): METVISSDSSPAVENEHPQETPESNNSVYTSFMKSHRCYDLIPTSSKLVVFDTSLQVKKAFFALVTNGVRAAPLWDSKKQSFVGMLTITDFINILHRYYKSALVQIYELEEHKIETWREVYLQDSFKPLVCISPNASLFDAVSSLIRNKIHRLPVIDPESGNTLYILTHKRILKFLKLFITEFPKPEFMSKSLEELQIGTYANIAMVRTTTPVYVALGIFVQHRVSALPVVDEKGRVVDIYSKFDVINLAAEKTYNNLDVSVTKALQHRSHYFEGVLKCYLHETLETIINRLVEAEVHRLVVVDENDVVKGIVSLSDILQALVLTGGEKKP
T6 sequence (P11309 whole entry): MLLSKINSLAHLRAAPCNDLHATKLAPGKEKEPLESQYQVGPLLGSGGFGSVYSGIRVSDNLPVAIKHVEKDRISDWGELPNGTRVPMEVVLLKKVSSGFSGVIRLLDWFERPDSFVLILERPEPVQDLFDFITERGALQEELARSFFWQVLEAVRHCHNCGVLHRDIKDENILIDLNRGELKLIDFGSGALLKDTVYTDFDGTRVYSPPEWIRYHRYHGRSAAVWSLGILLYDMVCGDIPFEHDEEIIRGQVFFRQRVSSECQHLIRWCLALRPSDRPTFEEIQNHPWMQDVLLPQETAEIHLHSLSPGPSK

Structure (SMILES) | inhibition at 1 µM (MST1R (RON)) | inhibition at 10 µM (MST1R (RON)) | inhibition at 1 µM (AMPK A1/B1/G1) | inhibition at 10 µM (AMPK A1/B1/G1) | inhibition at 1 µM (CDK7/cyclin H/MNAT1) | inhibition at 10 µM (CDK7/cyclin H/MNAT1) | inhibition at 1 µM (TXK) | inhibition at 10 µM (TXK) | inhibition at 1 µM (EPHB4) | inhibition at 10 µM (EPHB4) | inhibition at 1 µM (PIM1) | inhibition at 10 µM (PIM1) | inhibition at 1 µM (CDK5/p35) | inhibition at 10 µM (CDK5/p35)
COc1ccc2c(c1OC)c(=O)n1c3ccc(O)cc3c3ccnc2c31 [MW01, 5-Hydroxy-10,11-dimethoxy-9H-benzo[c]indolo[3,2,1-ij][1,5]naphthyridin-9-one] | 22% | 39% | 4% | 14% | 3% | 4% | 12% | 29% | 5% | 7% | 11% | 24% | 17% | 14%
COc1ccc2cc3c(N)nn(C(=O)c4cccc(N(C)C)c4)c3nc2c1 [MW05, (3-Amino-7-methoxypyrazolo[3,4-b]quinolin-1-yl)-[3-(dimethylamino)phenyl]methanone] | -1% | -16% | 6% | -3% | 2% | 29% | 4% | -13% | -3% | 2% | 8% | -9% | 5% | 7%
